Results: PubChem BioAssay (NCI)
Values joined by “and” are separate entries in the source; they are usually repeats but may differ in a detail not shown here. Identical values can stand only once.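 Method: 48-hour compound exposure of cells in 96-well plates, five concentrations, linear interpolation of endpoints. GI50 = concentration required for 50% inhibition of growth. TGI: total growth inhibition.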

Key:
Assay in all cases: NCI-60 cell line screen, 48 h
[1] = test system: 786-0 renal
[2] = test system: A498 renal
[3] = test system: DMS 114 small cell lung
[4] = test system: HT29 colon
[5] = test system: OVCAR-4 ovarian
[6] = test system: SF-268 CNS
[7] = test system: U251 CNS
[8] = test system: CAKI-1 renal
[9] = test system: MDA-MB-435
[10] = test system: MDA-N

SMILES | TGI [1] | TGI [2] | TGI [3] | TGI [4] | TGI [5] | TGI [6] | TGI [7] | TGI [8] | TGI [9] | TGI [10] | GI50 [1] | GI50 [2] | GI50 [8] | GI50 [4] | GI50 [9] | GI50 [5] | GI50 [6] | GI50 [7] | GI50 [3]
CCOc1ccc(NC(=O)CC2SC(=Nc3ccc(C)cc3)NC2=O)cc1 (stereo not drawn) | > 100 µM | > 100 µM | > 100 µM | > 100 µM | > 100 µM | > 100 µM | > 100 µM | – | – | – | – | – | – | – | – | – | – | – | –
CCCCCCCCCCCCCCCCCc1nc(Cl)nc(Cl)c1Cl | > 100 µM | – | – | > 100 µM | > 100 µM | > 100 µM | > 100 µM | > 100 µM | > 100 µM | > 100 µM | – | – | – | – | – | – | – | – | –
O=[N+]([O-])c1ccccc1N=Nc1c(O)[nH]c2c(Cl)cccc12 | 31.1 µM | > 68.8 µM | – | 99.4 µM | 24.8 µM | 59.8 µM | > 51.5 µM | 26.3 µM | > 100 µM | > 100 µM | – | – | – | – | – | – | – | – | –
O=S(=O)(c1ccccc1)N1CCCC(c2ccccc2)CC1 (stereo not drawn) | > 100 µM | > 100 µM | – | 42 µM | > 100 µM | > 100 µM | > 100 µM | > 100 µM | > 100 µM | > 100 µM | – | – | – | – | – | – | – | – | –
COc1ccc(/C=C/C(=O)c2c(-c3ccccc3)nn(C)c(=O)c2N2CC2C)cc1 (stereo not drawn) | > 100 µM | 80.7 µM | 90.6 µM | > 100 µM | 84 µM | > 100 µM | 85.6 µM | > 100 µM | – | – | – | – | – | – | – | – | – | – | –
N=C(N)c1ccc2oc3ccc(C(=N)N)cc3c(=O)c2c1 | > 100 µM | > 100 µM | – | > 100 µM | > 100 µM | > 100 µM | > 100 µM | > 100 µM | > 100 µM | > 100 µM | – | – | – | – | – | – | – | – | –
COc1cccc(/C=C2\N=C(c3ccccc3)OC2=O)c1 | > 100 µM | – | – | > 100 µM | > 100 µM | > 100 µM | > 100 µM | > 100 µM | > 100 µM | > 100 µM | – | – | – | – | – | – | – | – | –
Cc1cc(Cl)ccc1N=C1NC(=O)C(CC(=O)Nc2cccc(Cl)c2)S1 (stereo not drawn) | > 100 µM | 92.4 µM | > 100 µM | > 100 µM | > 100 µM | > 100 µM | > 100 µM | > 100 µM | – | – | – | – | – | – | – | – | – | – | –
NNc1c(C(N)=O)c2c(N)ncnc2n1C1OC(CO)C(O)C1O (stereo not drawn) | 0.405 µM and 1.87 µM | 0.485 µM and 1.26 µM | – | – | 0.776 µM and 0.16 µM | 1.05 µM and 1.22 µM | 12.9 µM and > 100 µM | 0.826 µM and 0.909 µM | 0.148 µM and 0.265 µM | 0.144 µM | 0.0354 µM and 0.107 µM | 0.0445 µM and 0.161 µM | 0.0171 µM and < 0.0167 µM | < 0.0118 µM | 0.0346 µM and 0.0483 µM | < 0.0105 µM | 0.0451 µM and 0.0928 µM | 0.023 µM and 0.0635 µM | –
FC(F)(F)c1ccccc1C1SCc2nc3ccccc3n21 (stereo not drawn) | > 100 µM | 94.4 µM | > 100 µM | > 100 µM | – | > 100 µM | > 100 µM | > 100 µM | – | – | – | – | – | – | – | – | – | – | –
NC(=NCCCCCCN=C(N)/N=C(\N)Nc1ccc(Cl)cc1)/N=C(\N)Nc1ccc(Cl)cc1 | 5.8 µM | 6.22 µM | – | 5.18 µM | 6.46 µM | 4.46 µM | 2.77 µM | 4.79 µM | 5.94 µM | – | 1.6 µM | 1.6 µM | 1.33 µM | 1.62 µM | 1.54 µM | 1.72 µM | 1.48 µM | 1.07 µM | –
COc1ccc(-c2nsc3c2NC(=O)CC3c2ccsc2)cc1 (stereo not drawn) | > 100 µM | 0.808 µM | – | 32.8 µM | > 100 µM | > 100 µM | > 100 µM | > 100 µM | 0.0644 µM | – | 1.25 µM | 0.171 µM | 0.298 µM | 0.0643 µM | 0.0235 µM | 3.47 µM | 1.34 µM | 0.299 µM | –
CC1[C@@]2(CCC(C)(C)O2)O[C@@H]2C=C3C4CCC5Cc6nc7c(nc6C[C@@]5(C)C4C[C@H](O)[C@@]3(C)[C@]12O)CC1CCC2C3=C[C@H]4O[C@@]5(O[C@@](C)(CO)C[C@@H]5O)C(C)[C@@]4(O)[C@]3(C)[C@@H](O)CC2[C@]1(C)C7 (stereo partly drawn) | 0.6 µM | 0.14 µM and 0.0426 µM | – | – | 0.81 µM | 0.904 µM and 0.125 µM | – | 0.66 µM | – | – | – | 0.00106 µM | 0.0195 µM | 0.00179 µM | – | 0.0921 µM | 0.00464 µM | 0.00043 µM | 0.000805 µM
CC(C)(C)N/N=C(/Cc1nc2c3c(ccc2[nH]c1=O)C(=O)c1ccccc1C3=O)C(=O)NC1=C(Cl)C(=O)c2ccccc2C1=O | > 100 µM | > 100 µM | – | 30 µM | 61.6 µM | 43.5 µM | > 100 µM | > 100 µM | > 100 µM | 28.3 µM | – | – | – | – | – | – | – | – | –
CC(C)(Oc1ccc(-c2cccc3ccccc23)cc1)C(=O)O | > 100 µM | > 100 µM | – | > 100 µM | > 100 µM | > 100 µM | > 100 µM | > 100 µM | > 100 µM | > 100 µM | – | – | – | – | – | – | – | – | –
CC(C)=C[C@@H]1C[C@H](C)[C@H]2CC[C@H](C)c3c(O)c(OC4OC(C)C(O)C(O)C4O)c(C)c1c32 (stereo partly drawn) | 33 µM | 26.7 µM | – | 15.6 µM | 24.7 µM | 31.3 µM | 27.8 µM | 28.7 µM | 27.2 µM | – | 17.8 µM | 12.7 µM | 14.5 µM | 4.07 µM | 13.6 µM | 12.1 µM | 16 µM | 14.7 µM | –
COc1ccc(/C=C/C(=N\NC(=O)c2ccccc2)c2sc(Nc3ccc([N+](=O)[O-])cc3)nc2C)cc1OC | 26.5 µM | – | 62.7 µM | > 100 µM | 36.9 µM | 33.5 µM | 18.6 µM | 32.8 µM | – | – | – | – | – | – | – | – | – | – | –
CCn1c(-c2nonc2N)nc2ccccc21 | > 25 µM | > 25 µM | – | > 25 µM | > 25 µM | > 25 µM | > 25 µM | > 25 µM | > 25 µM | – | > 25 µM | > 25 µM | > 25 µM | > 25 µM | > 25 µM | > 25 µM | > 25 µM | > 25 µM | –
COc1cc2c(oc(=O)c3c4occc4cc(OC)c23)c2cccc(O)c12 | > 100 µM | > 100 µM | > 100 µM | > 100 µM | > 100 µM | > 100 µM | > 100 µM | > 100 µM | – | – | – | – | – | – | – | – | – | – | –
